The results in this text go back to US10501460B2, “Heterocyclic compounds and uses thereof” (Plexxikon Inc., priority 2013, dated 2019).

In one assay the test system is MV-4-11. Briefly: Oncology cell growth assay MV-4-11 (CellTiter Glo, 72 hours). The conditions noted are these: Homo sapiens, MV4-11, 72 h; MV-4-11 cell growth inhibitory activity, 3d. It counts as cell-based. The text has this: (§1) Published bromodomain inhibitors JQ1 and iBET 151 have shown activity in variety of cancer cells such leukemia and lymphoma, multiple myeloma cells, NUT midline carcinoma and glioblastoma cells (Dawson M A et al. 2011; Delmore J E 2011; Chen Z et al. 2013; Filippakopoulos P et al. 2010; Mertz J A et al. 2011; Ott C J et al. 2012). In this study, we test compounds in different cancer cell lines. MV-4-11 and MOLM-13 are AML cell lines harboring a MLL-AF4 and MLL-AF9 translocation, respectively. MM.1S is a multiple myeloma cell line. SK-N-AS, IMR-32 and SK-N-BE(2) are neuroblastoma cell lines. IMR-32 and SK-N-BE(2) cell lines harbor MYCN amplifications. MV-4-11, MM.1S, IMR-32, SK-N-AS and SK-N-BE(2) were obtained from ATCC (IL, USA) and MOLM-13 were purchased from DSMZ (Braunschweig, German). Cells are cultured as recommended by their sources. For growth inhibition studies 3000 cells are seeded in wells of a 96-well plate in 75 μL of culture media. After several hours, growth media containing compounds of formula (I) are added to the wells. Compound at a maximal concentration of 5 mM was serially diluted 1:3 for a total of 8 point titration with DMSO as a control. A 1 μL aliquot of each dilution point is added to 249 μL growth media and 75 μL is added to each well containing cells, providing 10 μM compound at the maximum concentration point. The final concentration of DMSO in all wells is 0.2%. Cells are incubated for 72 hours, and 25 μL of CellTiter Glo Reagent (Promega Ga., USA) is added to each well. Plates are shaken for approximately 10 minutes and chemiluminescent signal is read on Tecan microplate reader. The measured luminescence correlates directly with cell number.
(§2) All data is normalized to the mean of eight DMSO high control wells on each plate. A four parameter curve fit of the following formula was then applied: Y=a+(b−a)/(1+(x/c)^d) Where ‘a’ is the minimum, ‘b’ is the maximum, ‘c’ is the pIC50 and ‘d’ is the Hill slope. […] Myc Reporter Assay
The following table provides data indicating the BRD4 biochemical inhibitory activity and MV-4-11 cell growth inhibitory activity for exemplary compounds as described herein.
In general terms: ATP-based viability assays read luminescence as a measure of living cells.

A further assay concerns bromodomain. In words: Bromodomain cell assays of Example 40 (at least one of them). The conditions noted are these: in at least one of the bromodomain cell assays described in Example 40. It counts as cell-based.
Excerpt: as §1, §2
In MV-4-11 cells, BRD2, BRD3 and BRD4 bind to the promoter region of MYC and regulate its transcription (Dawson M A et al. 2011). The literature bromodomain inhibitor iBET 151 could disrupt BRD4 recruitment to the MYC promoter and subsequently downregulate c-myc transcription (Dawson M A et al. 2011). Myc protein is a transcription factor that heterodimerizes with an obligatory partner Max and regulates the transcription of genes important for cell proliferation, differentiation, and apoptosis. This Myc reporter assay is used to monitor the inhibitory effect of compound of formula (I) on Myc dependent gene expression. Effective compounds could have potential therapeutic effects in Myc-driven tumors.
The MV-4-11 Myc reporter cell line is established by infecting MV-4-11 with VSV-g pseudotyped lentivirus expressing the firefly luciferase gene under the control of a minimal (m) CMV promoter and tandem repeats of the E-box transcriptional response element (TRE) (Qiagen IL, USA) and selecting cells in […] Puromycin.
The MV-4-11 Myc reporter cell line is maintained in Iscove's Modified Dulbecco's Medium containing 10% FBS, 1% PenStep and 2.5 μg/ml Puromycin. Cells are incubated at 37° C. in a humidified atmosphere with 5% CO2. 25,000 cells are seeded in 96-well plate in 50 μL of culture media. After several hours, growth media containing 2× compounds are added to the wells. Compound at a maximal concentration of 5 mM is serially diluted 1:3 for a total of 8 point titration. A 1 μl aliquot of each dilution point is added to 249 μl growth media and 50 μl is added to each well containing cells, providing 10 μM compound at the maximum concentration point. DMSO treated cells serve as a high control and 10 μM JQ1 treated cells serve as a low control. Cells are incubated for a further 24 hours and 25 μL of CellTiter-Fluo Reagent (Promega Ga., USA) is added to each well. Plates are shaken for approximately 2 minutes and incubated at 37° C. for 0.5 hour. […]

As to `Cc1noc(C)c1-c1cnc2[nH]cc(Cc3cccnc3)c2c1` [P-0003, 3,5-dimethyl-4-[3-(3-pyridylmethyl)-1H-pyrrolo[2,3-b]pyridin-5-yl]isoxazole], the IC50 (in general, the point on the concentration scale where inhibition reaches its midpoint) is not above 1 µM in the assay on MV-4-11 and less than 10 µM with bromodomain. For `Cc1noc(C)c1-c1cnc2[nH]c(C)c(Cc3cccnc3)c2c1` [P-0005, 3,5-dimethyl-4-[2-methyl-3-(3-pyridylmethyl)-1H-pyrrolo[2,3-b]pyridin-5-yl]isoxazole] the same measures were not above 1 µM and less than 10 µM. For `Cc1noc(C)c1-c1cnc2[nH]c(-c3ccc(F)cc3)c(Cc3cccnc3)c2c1` [P-0007, 4-[2-(4-fluorophenyl)-3-(3-pyridylmethyl)-1H-pyrrolo[2,3-b]pyridin-5-yl]-3,5-dimethyl-isoxazole] the same measures were not above 1 µM and less than 10 µM. The corresponding values for `Cc1noc(C)c1-c1cnc2[nH]c(C)c(C(O)c3cccnc3)c2c1` (stereo not shown) [P-0009, [5-(3,5-dimethylisoxazol-4-yl)-2-methyl-1H-pyrrolo[2,3-b]pyridin-3-yl]-(3-pyridyl)methanol] are not above 1 µM and less than 10 µM. Regarding `COc1ncc(F)cc1C(OC)c1c[nH]c2ncc(-c3c(C)noc3C)cc12` (stereo not shown) [P-0011, 4-[3-[(5-fluoro-2-methoxy-3-pyridyl)-methoxy-methyl]-1H-pyrrolo[2,3-b]pyridin-5-yl]-3,5-dimethyl-isoxazole], the IC50 in the assay on MV-4-11 was not above 1 µM; in the assay with bromodomain, less than 10 µM. Consider `Cc1noc(C)c1-c1cnc2[nH]cc(C(O)c3ccc(OCC(F)(F)F)nc3)c2c1` (stereo not shown) [P-0012, [5-(3,5-dimethylisoxazol-4-yl)-1H-pyrrolo[2,3-b]pyridin-3-yl]-[6-(2,2,2-trifluoroethoxy)-3-pyridyl]methanol], for which the IC50 is 1 to 10 µM with MV-4-11 and less than 10 µM with bromodomain. The corresponding values for `COC(c1ccc(C(F)(F)F)nc1)c1c[nH]c2ncc(-c3c(C)noc3C)cc12` (stereo not shown) [P-0013, 4-[3-[methoxy-[6-(trifluoromethyl)-3-pyridyl]methyl]-1H-pyrrolo[2,3-b]pyridin-5-yl]-3,5-dimethyl-isoxazole] are not above 1 µM and less than 10 µM. The corresponding values for `COC(c1c(F)cccc1Cl)c1c[nH]c2ncc(-c3c(C)noc3C)cc12` (stereo not shown) [P-0014, 4-[3-[(2-chloro-6-fluoro-phenyl)-methoxy-methyl]-1H-pyrrolo[2.3-b]pyridin-5-yl]-3,5-dimethyl-isoxazole] are not above 1 µM and less than 10 µM.

Consider `Cc1noc(C)c1-c1cnc2[nH]cc(C(O)c3ccccc3Cl)c2c1` (stereo not shown) [P-0019, (2-chlorophenyl)-[5-(3,5-dimethylisoxazol-4-yl)-1H-pyrrolo[2,3-b]pyridin-3-yl]methanol], for which the IC50 in the assay with MV-4-11 is not above 1 µM; in the assay on bromodomain, less than 10 µM.

With `COC(c1ccccc1Cl)c1c[nH]c2ncc(-c3c(C)noc3C)cc12` (stereo not shown) [P-0020, 4-[3-[(2-chlorophenyl)-methoxy-methyl]-1H-pyrrolo[2,3-b]pyridin-5-yl]-3,5-dimethyl-isoxazole], the values for the IC50 in the assay with MV-4-11 and in the assay with bromodomain were not above 1 µM and less than 10 µM, respectively. The corresponding values for `Cc1noc(C)c1-c1cnc2[nH]cc(C(O)c3c(F)cccc3Cl)c2c1` (stereo not shown) [P-0021, (2-chloro-6-fluoro-phenyl)-[5-(3,5-dimethylisoxazol-4-yl)-1H-pyrrolo[2,3-b]pyridin-3-yl] methanol] are not above 1 µM and less than 10 µM. Regarding `COc1ncc(F)cc1C(O)c1c[nH]c2ncc(-c3c(C)noc3C)cc12` (stereo not shown) [P-0022, [5-(3,5-dimethylisoxazol-4-yl)-1H-pyrrolo[2,3-b]pyridin-3-yl]-(5-fluoro-2-methoxy-3-pyridyl)methanol], the values for the IC50 with MV-4-11 and in the assay on bromodomain were not above 1 µM and less than 10 µM, respectively. The corresponding values for `Cc1noc(C)c1-c1cnc2[nH]cc(C3(O)CCC(F)(F)CC3)c2c1` [P-0024, 1-[5-(3,5-dimethylisoxazol-4-yl)-1H-pyrrolo[2,3-b]pyridin-3-yl]-4,4-difluoro-cyclohexanol] are 1 to 10 µM and less than 10 µM.

For the compound `COc1ncc(C(O)c2c[nH]c3ncc(-c4c(C)noc4C)cc23)cc1F` (stereo not shown) [P-0025, [5-(3,5-dimethylisoxazol-4-yl)-1H-pyrrolo[2,3-b]pyridin-3-yl]-(5-fluoro-6-methoxy-3-pyridyl)methanol], the figures for the IC50 in the assay on MV-4-11 and in the assay on bromodomain were 1 to 10 µM and less than 10 µM, respectively.

With `Cc1noc(C)c1-c1cnc2[nH]cc(Cc3ccccc3Cl)c2c1` [P-0026, 4-[3-[(2-chlorophenyl)methyl]-1H-pyrrolo[2,3-b]pyridin-5-yl]-3,5-dimethyl-isoxazole], the IC50 in the assay on MV-4-11 is 1 to 10 µM; with bromodomain, less than 10 µM. The corresponding values for `Cc1noc(C)c1-c1cnc2[nH]cc(Cc3c(F)cccc3Cl)c2c1` [P-0027, 4-[3-[(2-chloro-6-fluoro-phenyl)methyl]-1H-pyrrolo [2,3-b]pyridin-5-yl]-3,5-dimethyl-isoxazole] are 1 to 10 µM and less than 10 µM.

As for `COc1ncc(F)cc1Cc1c[nH]c2ncc(-c3c(C)noc3C)cc12` [P-0028, 4-[3-[(5-fluoro-2-methoxy-3-pyridyl)methyl]-1H-pyrrolo[2,3-b]pyridin-5-yl]-3,5-dimethyl-isoxazole], the IC50 in the assay on MV-4-11 was not above 1 µM; in the assay with bromodomain it was less than 10 µM. Consider `Cc1noc(C)c1-c1cnc2[nH]cc(C3=CCC(F)(F)CC3)c2c1` [P-0029, 4-[3-(4,4-difluorocyclohexen-1-yl)-1H-pyrrolo[2,3-b]pyridin-5-yl]-3,5-dimethyl-isoxazole], for which the IC50 with MV-4-11 is 1 to 10 µM; in the assay on bromodomain, less than 10 µM. For `Cc1noc(C)c1-c1cnc2[nH]cc(C(O)C3CCC(F)(F)CC3)c2c1` (stereo not shown) [P-0030, (4,4-difluorocyclohexyl)-[5-(3,5-dimethylisoxazol-4-yl)-1H-pyrrolo[2,3-b]pyridin-3-yl] methanol] the same measures were not above 1 µM and less than 10 µM.

Consider `Cc1noc(C)c1-c1cnc2c(C#CCO)cn(S(=O)(=O)c3ccccc3)c2c1` [P-0155, 3-[1-(benzenesulfonyl)-6-(3,5-dimethylisoxazol-4-yl)pyrrolo[3,2-b]pyridin-3-yl]prop-2-yn-1-ol], for which the IC50 in the assay on MV-4-11 was not above 1 µM. On the same count and under the same terms, the value for `Cc1noc(C)c1-c1cnc2ccn(Cc3ccccc3)c2c1` [P-0162, 4-(1-benzylpyrrolo[3,2-b]pyridin-6-yl)-3,5-dimethyl-isoxazole] was not above 1 µM; that for `Cc1noc(C)c1-c1cnc2[nH]cc(P(=O)(c3ccccc3)c3ccccc3)c2c1` [P-0166, 4-(3-diphenylphosphoryl-1H-pyrrolo[2,3-b]pyridin-5-yl)-3,5-dimethyl-isoxazole] was not above 1 µM.

As for `Cc1noc(C)c1-c1cnc2c(-c3cnn(C(F)F)c3)cn(C(C)c3ccccc3)c2c1` (stereo not shown) [P-0177, 4-[3-[1-(difluoromethyl)pyrazol-4-yl]-1-(1-phenylethyl)pyrrolo[3,2-b]pyridin-6-yl]-3,5-dimethyl-isoxazole], in the assay with MV-4-11, the IC50 is not above 1 µM. Still for that read-out and setting: the figure for `Cc1noc(C)c1-c1cnc2c(c1)c(Sc1ccccc1)cn2-c1cnn(C)c1` [P-0184, 3,5-dimethyl-4-[1-(1-methylpyrazol-4-yl)-3-phenylsulfanyl-pyrrolo[2,3-b]pyridin-5-yl]isoxazole] is not above 1 µM.
